Results as given in US20070178166A1, “PROCESSES FOR MAKING PARTICLE-BASED PHARMACEUTICAL FORMULATIONS FOR PULMONARY OR NASAL ADMINISTRATION” (priority 2005, published 2007).

Assay: Dry powder particle sizing using a Malvern Mastersizer
Format: physicochemical
From the text: The following materials were used in the examples: mannitol (Spectrum Chemicals, New Brunswick, N.J., unless otherwise indicated), TWEENTM 80 (Spectrum Chemicals, New Brunswick, N.J.), celecoxib (Onbio, Ontario, Canada), Plasdone-C 15 (International Specialty Products, Wayne, N.Y.), budesonide (Byron Chemical Company, Long Island, N.Y.), dipalmitoyl phosphatidylcholine (DPPC) (Chemi S.p.a., Milan, Italy, unless otherwise indicated), PLGA (Boehringer Ingelheim Fine Chemicals, Ingelheim, Germany), ammonium bicarbonate (Spectrum Chemicals, Gardenia, Calif.), methylene chloride (EM Science, Gibbstown, N.J.), Fluticasone propionate ([…]., Mumbai, India), and lactose (Pharmatose […], DMV International, The Netherlands). The TWEENTM 80 is hereinafter referred to as “Tween80.” The volume average diameter of lactose (Pharmatose […]) was determined to be approximately 68 μm by dry powder particle sizing using a Malvern Mastersizer (Malvern Instruments Ltd., United Kingdom).

## OC[C@H]1O[C@@H](O[C@H]2[C@H](O)[C@@H](O)C(O)O[C@@H]2CO)[C@H](O)[C@@H](O)[C@H]1O (stereo partly shown) [lactose (Pharmatose 325M), lactose]
  volume average diameter: approximately 68 μm
